Reference: patent publication US20220153732A1, “PROTEIN SECRETION INHIBITORS” (KEZAR LIFE SCIENCES, priority 2019, published 2022)
Read-outs that look alike come from different tables or passages of the source.

Legend:
Assay type in all cases: cell-based
[1] = tested on: human multiple myeloma cell line U266B1; experiment: U266 Cell Viability Assay; conditions: read-out: 48 hr U266 Viability Celltiter-Glo: Mean EC50
Description: Cells were plated in 384-well tissue culture plates and treated with compound dilutions in DMSO/media. Plates were incubated at 37° C., 5% CO2 for 48 hours. After 48 hours, Celltiter-Glo® (Promega) was added to each well and luciferase signal was quantified using Tecan Infinite M1000 Pro for cell viability determination.
(§1) For chemical structures that include one or more stereoisomers, but are illustrated without indicating stereochemistry, the assay data refers to a mixture of stereoisomers.

[2] = tested on: HER3-ss+4aa/Gaussia Luciferase; experiment: Dox-Induced Her3-ss-Gluc Assay; conditions: 293FRT/TO cells, read-out: 24 hr Dox Inducible Her3(ss + 4)Gluc 293FRT/TO: Mean IC50
Description: (§2) Transfected cells were selected for resistance to the selectable markers Hygromycin and Blasticidin to create a stable cell line that contained the HER3-ss+4aa/Gaussia Luciferase cDNA insert whose expression was regulated under the T-REx™ system. The day before assay, cells were trypsinized and plated in 384-well tissue culture plates. The next day, compound dilutions in DMSO/media containing doxycycline were added to the wells and incubated at 37° C., 5% CO2.
as §1

[3] = tested on: human multiple myeloma cell line NCI-H929; experiment: H929 Cell Viability Assay; conditions: read-out: 48 hr H929 Viability Celltiter-Glo: Mean EC50
Description: Plates were incubated at 37° C., 5% CO2 for 48 hours. After 48 hours, Celltiter-Glo® (Promega) was added to each well and luciferase signal was quantified using Tecan Infinite M1000 Pro for cell viability determination.
as §1

[4] = tested on: IL-2-FL/Gaussia Luciferase; experiment: Dox Induced IL2-FL-Gluc Assay; conditions: 293FRT/TO cells, read-out: 24 hr Dox Inducible IL2FLGIuc 293FRT/TO: Mean IC50
Description: as §2, with “IL-2-FL/Gaussia” for “HER3-ss+4aa/Gaussia”, “T-RExTM” for “T-REx™”, “CO2. […] For chemical structures that include one or more stereoisomers, but are illustrated without indicating stereochemistry, the assay data refers to a mixture of stereoisomers.” for “CO2.”

[5] = tested on: PD1-ss+10aa/Gaussia Luciferase; experiment: Dox-Induced PD1-ss-Gluc Assay; conditions: 293FRT/TO cells, read-out: 24 hr Dox Inducible PD1ssGluc 293FRT/TO: Mean IC50
Description: as §2, with “PD1-ss+10aa/Gaussia” for “HER3-ss+4aa/Gaussia”
as §1

[6] = tested on: TNFα-FL/Gaussia Luciferase; experiment: Dox Induced TNFα-FL-Gluc Assay; conditions: 293FRT/TO cells, read-out: 24 hr Dox Inducible TNFaFLGluc 293FRT/TO: Mean IC50
Description: as §2, with “TNFα-FL/Gaussia” for “HER3-ss+4aa/Gaussia”, “T-RExTM” for “T-REx™”, “CO2. […] For chemical structures that include one or more stereoisomers, but are illustrated without indicating stereochemistry, the assay data refers to a mixture of stereoisomers.” for “CO2.”

[7] = U-266, 48 hr, U266B1 cells, Celltiter-Glo
[8] = 24 hr doxycycline induction, Gaussia luciferase signal
[9] = 48 hr, NCI-H929 cells, Celltiter-Glo

O=C(Nc1nc([C@@H]2CC[C@@H](c3ccccc3)C2)cs1)c1cccn1Cc1ccncc1 (stereo in doubt) [Compound A292, N-(4-((1R,3R)-3-phenylcyclopentyl)thiazol-2-yl)-1-(pyridin-4-ylmethyl)-1H-pyrrole-2-carboxamide]
EC50 [1, 7]: > 25 µM | IC50 [2, 8]: 0.471 µM | EC50 [3, 9]: 19 µM | IC50 [4, 8]: 0.835 µM | IC50 [5, 8]: 0.211 µM | IC50 [6, 8]: 2.51 µM

O=C(Nc1nc([C@H]2CC[C@@H](c3ccccc3)C2)cs1)c1cccn1Cc1ccncc1 (stereo in doubt) [Compound A305, N-(4-((1S,3R)-3-phenylcyclopentyl)thiazol-2-yl)-1-(pyridin-4-ylmethyl)-1H-pyrrole-2-carboxamide]
EC50 [1, 7]: > 25 µM | IC50 ([2]; 24 hr, doxycycline-induced): 0.414 µM | EC50 [3, 9]: 12.4 µM | IC50 ([4]; 24 hr, doxycycline-induced): 0.657 µM | IC50 ([5]; 24 hr, doxycycline-induced): 0.196 µM | IC50 ([6]; 24 hr, doxycycline-induced): 2.18 µM

C[C@H](OC(C)(C)c1csc(NC(=O)c2cccn2Cc2ccncc2)n1)c1ccccc1 [Compound A1, (S)-N-(4-(2-(1-phenylethoxy)propan-2-yl)thiazol-2-yl)-1-(pyridin-4-ylmethyl)-1H-pyrrole-2-carboxamide]
EC50 [1, 7]: > 25 µM | IC50 [2, 8]: 0.055 µM | EC50 [3, 9]: 1.88 µM | IC50 [4, 8]: 0.093 µM | IC50 [5, 8]: 0.024 µM | IC50 [6, 8]: 0.401 µM

CC(OC(C)(C)c1csc(NC(=O)c2cccn2Cc2ccncc2)n1)c1cccc(Cl)c1 (stereo not drawn) [Compound A2, N-(4-(2-(1-(3-chlorophenyl)ethoxy)propan-2-yl)thiazol-2-yl)-1-(pyridin-4-ylmethyl)-1H-pyrrole-2-carboxamide]
EC50 [1, 7]: 22.3 µM | IC50 [2, 8]: 0.062 µM | EC50 [3, 9]: 1.61 µM | IC50 [4, 8]: 0.105 µM | IC50 [5, 8]: 0.029 µM | IC50 [6, 8]: 0.391 µM

CC(OC(C)(C)c1csc(NC(=O)c2cccn2Cc2ccncc2)n1)c1ccccc1 (stereo not drawn) [Compound A3, N-(4-(2-(1-phenylethoxy)propan-2-yl)thiazol-2-yl)-1-(pyridin-4-ylmethyl)-1H-pyrrole-2-carboxamide]
EC50 [1, 7]: > 25 µM | IC50 [2, 8]: 0.099 µM | EC50 [3, 9]: 2.91 µM | IC50 [4, 8]: 0.144 µM | IC50 [5, 8]: 0.036 µM | IC50 [6, 8]: 0.58 µM

COc1cccc(C(C)OC(C)(C)c2csc(NC(=O)c3cccn3Cc3ccncc3)n2)c1 (stereo not drawn) [Compound A4, N-(4-(2-(1-(3-methoxyphenyl)ethoxy)propan-2-yl)thiazol-2-yl)-1-(pyridin-4-ylmethyl)-1H-pyrrole-2-carboxamide]
EC50 [1, 7]: > 25 µM | IC50 [2, 8]: 0.091 µM | EC50 [3, 9]: 2.77 µM | IC50 [4, 8]: 0.148 µM | IC50 [5, 8]: 0.038 µM | IC50 [6, 8]: 0.377 µM

CC(OC(C)(C)c1csc(NC(=O)c2cccn2Cc2ccncc2)n1)c1ccc(Cl)cc1 (stereo not drawn) [Compound A5, N-(4-(2-(1-(4-chlorophenyl)ethoxy)propan-2-yl)thiazol-2-yl)-1-(pyridin-4-ylmethyl)-1H-pyrrole-2-carboxamide]
EC50 [1, 7]: 23.9 µM | IC50 [2, 8]: 0.102 µM | EC50 [3, 9]: 2.44 µM | IC50 [4, 8]: 0.145 µM | IC50 [5, 8]: 0.043 µM | IC50 [6, 8]: 0.81 µM

C[C@H](OC(C)(C)c1csc(NC(=O)c2cccn2CCCc2ccncc2)n1)c1ccccc1 [Compound A6, (S)-N-(4-(2-(1-phenylethoxy)propan-2-yl)thiazol-2-yl)-1-(3-(pyridin-4-yl)propyl)-1H-pyrrole-2-carboxamide]
EC50 [1, 7]: 6.23 µM | IC50 [2, 8]: 0.088 µM | EC50 [3, 9]: 2.17 µM | IC50 [4, 8]: 0.078 µM | IC50 [5, 8]: 0.046 µM | IC50 [6, 8]: 0.541 µM

CC(C)(OCC1CCCCC1)c1csc(NC(=O)c2cccn2Cc2ccncc2)n1 [Compound A7, N-(4-(2-(cyclohexylmethoxy)propan-2-yl)thiazol-2-yl)-1-(pyridin-4-ylmethyl)-1H-pyrrole-2-carboxamide]
EC50 [1, 7]: > 25 µM | IC50 [2, 8]: 0.093 µM | EC50 [3, 9]: 3.85 µM | IC50 [4, 8]: 0.071 µM | IC50 [5, 8]: 0.058 µM | IC50 [6, 8]: 0.808 µM

CC(OC(C)(C)c1csc(NC(=O)c2cccn2Cc2ccncc2)n1)c1ccccc1Cl (stereo not drawn) [Compound A8, N-(4-(2-(1-(2-chlorophenyl)ethoxy)propan-2-yl)thiazol-2-yl)-1-(pyridin-4-ylmethyl)-1H-pyrrole-2-carboxamide]
EC50 [1, 7]: 7.87 µM | IC50 [2, 8]: 0.174 µM | EC50 [3, 9]: 3.89 µM | IC50 [4, 8]: 0.165 µM | IC50 [5, 8]: 0.058 µM | IC50 [6, 8]: 0.42 µM

CC(C)(OCc1ccccc1)c1csc(NC(=O)c2cccn2Cc2ccncc2)n1 [Compound A9, N-(4-(2-(benzyloxy)propan-2-yl)thiazol-2-yl)-1-(pyridin-4-ylmethyl)-1H-pyrrole-2-carboxamide]
EC50 [1, 7]: > 25 µM | IC50 [2, 8]: 0.202 µM | EC50 [3, 9]: 9.46 µM | IC50 [4, 8]: 0.197 µM | IC50 [5, 8]: 0.104 µM | IC50 [6, 8]: 1.62 µM

CC(C)(OC1CCCCC1)c1csc(NC(=O)c2cccn2Cc2ccncc2)n1 [Compound A10, N-(4-(2-(cyclohexyloxy)propan-2-yl)thiazol-2-yl)-1-(pyridin-4-ylmethyl)-1H-pyrrole-2-carboxamide]
EC50 [1, 7]: > 25 µM | IC50 [2, 8]: 0.195 µM | EC50 [3, 9]: 15.6 µM | IC50 [4, 8]: 0.158 µM | IC50 [5, 8]: 0.105 µM | IC50 [6, 8]: 1.58 µM

CC(C)OC(C)(C)c1csc(NC(=O)c2cccn2CCCc2ccncc2)n1 [Compound A11, N-(4-(2-isopropoxypropan-2-yl)thiazol-2-yl)-1-(3-(pyridin-4-yl)propyl)-1H-pyrrole-2-carboxamide]
EC50 [1, 7]: > 25 µM | IC50 [2, 8]: 0.128 µM | EC50 [3, 9]: 8.69 µM | IC50 [4, 8]: 0.061 µM | IC50 [5, 8]: 0.115 µM | IC50 [6, 8]: 2.39 µM

O=C(Nc1nc(/C=C\c2ccccc2)cs1)c1cccn1Cc1ccncc1 [Compound A12, 1-(pyridin-4-ylmethyl)-N-(4-styrylthiazol-2-yl)-1H-pyrrole-2-carboxamide]
EC50 [1, 7]: > 25 µM | IC50 [2, 8]: 0.338 µM | EC50 [3, 9]: 18.6 µM | IC50 [4, 8]: 0.566 µM | IC50 [5, 8]: 0.139 µM | IC50 [6, 8]: 1.76 µM

CC(C)OC(C)(C)c1csc(NC(=O)[C@@H]2CCCN2Cc2ccncc2)n1 [Compound A130, (S)-N-(4-(2-isopropoxypropan-2-yl)thiazol-2-yl)-1-(pyridin-4-ylmethyl)pyrrolidine-2-carboxamide]
IC50 [2, 8]: > 25 µM | EC50 [3, 9]: > 25 µM | IC50 [4, 8]: > 25 µM | IC50 [5, 8]: > 25 µM | IC50 [6, 8]: > 25 µM

CC(C)(C)c1csc(NC(=O)c2cc3cc(Cl)ccc3n2Cc2ccncc2)n1 [Compound B28, N-(4-(tert-butyl)thiazol-2-yl)-5-chloro-1-(pyridin-4-ylmethyl)-1H-indole-2-carboxamide]
EC50 ([1]; U-266, 48 h): > 25 µM | EC50 ([3]; NCI-H929, 48 h): 23.4 µM | IC50 ([4]; 24 hr, doxycycline-induced): > 25 µM | IC50 ([5]; 24 hr, doxycycline-induced): > 25 µM | IC50 ([6]; 24 hr, doxycycline-induced): > 25 µM

CCc1nc(NC(=O)c2cc3cc(Cl)ccc3n2Cc2ccncc2)sc1C [Compound B29, 5-chloro-N-(4-ethyl-5-methylthiazol-2-yl)-1-(pyridin-4-ylmethyl)-1H-indole-2-carboxamide]
EC50 ([1]; U-266, 48 h): > 25 µM | EC50 ([3]; NCI-H929, 48 h): > 25 µM | IC50 ([4]; 24 hr, doxycycline-induced): > 25 µM | IC50 ([5]; 24 hr, doxycycline-induced): > 25 µM | IC50 ([6]; 24 hr, doxycycline-induced): > 25 µM
